For test [1], the system named is HCC70. Description: Panel A proliferation assay (CellTiter-Glo); HER2 Loss 1 copy, KRAS WT, PIK3CA WT. Format: cell-based, human. Conditions: for IC50: Homo sapiens. As to the method:
(§1) A total of 15 breast cancer cell lines were used in this study. These cells were cultured in RPMI-1640 and supplemented with 5% or 10% fetal bovine serum, 2 mM GlutaMAX™ and 1 mM sodium pyruvate, or in growth medium recommended by the suppliers [American Type Culture Collection, Manassas, Va., USA; Developmental Therapeutics Program, National Cancer Institute, Bethesda, Md., USA; German Collection of Microorganisms and Cell Cultures (DSMZ), Braunschweig, Germany; European Collection of Cell Cultures (ECACC), Porton Down, UK]. Cells of each line were seeded into a 384-well microtiter plate at two cell densities. Low density ranges were 300-1800 cells/well, and a high density was 600 to 3600 cells/well). The plating density was determined by the rate of proliferation of the cell line in the absence of any inhibitor and varied amongst cell lines. High plating densities were double that of low density. Each cell density was plated in triplicate. In total there were 30 wells to be treated with increasing concentrations of Compound B for each cell line at each density. In addition, there were 24 wells of dimethyl sulfoxide (DMSO)-treated controls at each density. After seeding, the cells were incubated at 37° C. in 5% CO2 for 24 hours. Subsequently, Compound B was added to each cell line with 10 concentrations. The dosing solution of Compound B was first prepared in DMSO at a master stock concentration of 10 mM. 1:3 serial dilutions were then made of the stock solution to give a range of working stock concentrations; 10.00 mM, 3.164 mM, 1.001 mM, 316.9 μM, 100.3 μM, 31.74 μM, 10.04 μM, 3.178 μM, 1.006 μM and 318.3 nM. The working stock concentrations of Compound B were then dispensed into the seeded cancer cell lines using a Biomek FX liquid handler to give final treatment concentrations of 0.1% of the stock concentration. A similar volume of DMSO without Compound B was dispensed into the 24 control wells of each seeding density at a concentration of 0.1%. Also, a zero-time plate prepared with a similar cell seeding was read for each cell line at each seeding density immediately after the addition of the DMSO control. After a 72 h incubation, an equal volume of the CellTiter-Glo (CellTiter-Glo Luminescent Cell Viability Assay, Promega, Madison, Wis.) to that of the cell culture medium was added into each well of the plate. After the contents were mixed to induce cell lysis and stabilization, cell luminescence was recorded using a SpectraMax M5^e (Molecular Devices, Sunnyvale, Calif., USA)
The luminescence of Compound B treated cells was compared relative to the average of the 24 DMSO-treated control wells at each cell density for every concentration of Compound B for all triplicate wells. The percent intensity values were used in model 205 of XLfit in Microsoft Excel to calculate gIC50s for the low and high seeding density (a 4 parameter logistical fit). Specifically, the midpoint of the growth window (the gIC50) falls half way between the number of cells at the time of compound addition (T=0) and the growth of control cells treated with DMSO. The gIC50 value serves as a metric for measuring the inhibition of proliferation in cancer cells. […] Finally, where data quality permits, the Ymin values (defined as the maximum growth inhibition relative to the cell density at Time-zero) were calculated as a measure of cytotoxicity where data were of reasonable quality.

The subject of test [2] is panel of 15 human breast cell lines. Description: Breast Cancer Cell Line Panel A proliferation assay, panel summary. The class given is cell-based. On the procedure:
as §1, with “The dosing solution of Compound B was first prepared in DMSO at a master stock concentration of 10 mM. 1:3 serial dilutions were then made of the stock solution to give a range of working stock concentrations; 10.00 mM, 3.164 mM, 1.001 mM, 316.9 μM, 100.3 μM, 31.74 μM, 10.04 μM, 3.178 μM, 1.006 μM and 318.3 nM. The working stock concentrations of Compound B were then dispensed into the seeded cancer cell lines using a Biomek FX liquid handler to give final treatment concentrations of 0.1% of the stock concentration. A similar volume of DMSO without Compound B was dispensed into the 24 control wells of each seeding density at a concentration of 0.1%.” left out, “After a 72 h incubation, an equal volume of the CellTiter-Glo (CellTiter-Glo Luminescent Cell Viability Assay, Promega, Madison, Wis.) to that of the cell culture medium was added into each well of the plate.” left out
The luminescence of Compound B treated cells was compared relative to the average of the 24 DMSO-treated control wells at each cell density for every concentration of Compound B for all triplicate wells. […] Finally, where data quality permits, the Ymin values (defined as the maximum growth inhibition relative to the cell density at Time-zero) were calculated as a measure of cytotoxicity where data were of reasonable quality.

Test [3] relates to panel of 51 human breast cell lines. The test is described as follows: Breast Cell Line Panel B proliferation assay, panel summary. Format: cell-based. The conditions noted are these: for IC50: 51 human breast cell lines. On the procedure:
From the stock concentration, 8 serial dilutions (1:5) were made with DMSO.
Generally, about 5 μl was added to the 100 μl of cell culture during the treatment, and each dose was replicated in three wells.
Day −1: Plate cells in 100 μl volume in 96 well plate. • Note: Cell number seeded adjusted for growth characteristics, so that at time of assay for proliferation following three-day drug treatment, the control wells should still be in log-growth phase (sub-confluent). Day 0: Drug added to plate for treatment. • A time 0 plate was processed for the proliferation assay to establish a baseline reading at time when drug was added.
LBNL are following the protocols set up by the NCI/NIH DTP Human Tumor Cell Line Screen Process (http://dtp.nci.nih.gov/branches/btb/ivclsp.html) and summarized below.
[(Ti−Tz)/(C−Tz)]×100 for concentrations for which Ti>/=Tz
[(Ti−Tz)/Tz]×100 for concentrations for which Ti<Tz. • C: control growth (vehicle control growth) • Tz: reading at time 0 • Ti: test growth in the presence of drug at the nine concentration levels gIC50: Growth inhibition of 50% is calculated from
[(Ti−Tz)/(C−Tz)]×100=50, • which is the drug concentration resulting in a 50% reduction in the net growth in control cells during the drug incubation. TGI: Total growth inhibition is calculated from
Ti=Tz. • The drug concentration resulting in total growth inhibition (down to the ‘time 0’ baseline). LC50: Net loss of cell growth at 50% is calculated from
[(Ti−Tz)/Tz]×100=−50. • The concentration of drug resulting in a 50% reduction in the cell number at the end of the drug treatment as compared to that at the beginning (time 0) indicating a net loss of cells following treatment.
Values are calculated for each of these three parameters if the level of activity is reached; however, if the effect is not reached or is exceeded, the value for that parameter is expressed as greater or less than the maximum or minimum concentration tested.

Test [4] concerns PI3K family of enzymes. Description: Selectivity in a large panel of protein kinases. Format: biochemical.
The test system of test [5] is SK-BR-3. The test is described as follows: Panel A proliferation assay (CellTiter-Glo); HER2 Gain ≧5, KRAS WT, PIK3CA WT. Format: cell-based, human. The conditions noted are these: for IC50: Homo sapiens. As to the method: as §1
(§2) The luminescence of Compound B treated cells was compared relative to the average of the 24 DMSO-treated control wells at each cell density for every concentration of Compound B for all triplicate wells. The percent intensity values were used in model 205 of XLfit in Microsoft Excel to calculate gIC50s for the low and high seeding density (a 4 parameter logistical fit). Specifically, the midpoint of the growth window (the gIC50) falls half way between the number of cells at the time of compound addition (T=0) and the growth of control cells treated with DMSO. The gIC50 value serves as a metric for measuring the inhibition of proliferation in cancer cells. The curves for each seeding density for each cell line were manually inspected for both data quality and appropriateness of curve fitting. Where the starting data were poor the curve and subsequent gIC50s were excluded from further analysis. Cell line seedings were considered of poor quality when the r^2 value of the fitted curve was <0.75. Finally, where data quality permits, the Ymin values (defined as the maximum growth inhibition relative to the cell density at Time-zero) were calculated as a measure of cytotoxicity where data were of reasonable quality.

In test [6] the test system is UACC-812. Described as above. Conditions: for IC50: Homo sapiens. Format: cell-based, human. As to the method:
as §1, §2

SMILES strings stand for the structures. Read-outs that look alike come from different tables or passages of the source.

In the case of `COc1ncc(-c2ccc3nccc(-c4ccnnc4)c3c2)cc1NS(=O)(=O)c1ccc(F)cc1F` [Compound B, 2,4-difluoro-N-{2-(methyloxy)-5-[4-(4-pyridazinyl)-6-quinolinyl]-3-pyridinyl}benzenesulfonamide], the “High Density Y-Min” value in test [1] (HCC70, high density, % of cells at T = 0) stood at 8.7%; in test [5] (SK-BR-3, high density, % of cells at T = 0), 54.5%; in test [6] (UACC-812, high density, % of cells at T = 0) it was 12.6%. Moreover, the “Low Density Y-Min” value in test [1] (HCC70, low density, % of cells at T = 0) amounted to 9.6%; in test [5] (SK-BR-3, low density, % of cells at T = 0), 52.3%; in test [6] (UACC-812, low density, % of cells at T = 0) it was 12.1%. The IC50 is 4.8 nM in test [1] (HCC70, high seeding density, 72 h, read-out: High Density gIC50); 4.6 nM in test [1] (HCC70, low seeding density, 72 h, read-out: Low Density gIC50); 4.7 nM in test [1] (HCC70, mean of low and high density, read-out: Mean gIC50); 3.2 nM in test [2] (15 human breast cell lines, read-out: overall median gIC50); 28.9 nM in test [3] (read-out: average gIC50); 1.1 to 398 nM in test [3] (read-out: gIC50s across the panel (range)). In addition, the IC50 in test [3] (read-out: overall median gIC50) turned out to be 10.4 nM; in test [5] (SK-BR-3, high seeding density, 72 h, read-out: High Density gIC50), 4.2 nM; in test [5] (SK-BR-3, low seeding density, 72 h, read-out: Low Density gIC50), 2.9 nM; in test [5] (SK-BR-3, mean of low and high density, read-out: Mean gIC50), 3.55 nM; in test [6] (UACC-812, high seeding density, 72 h, read-out: High Density gIC50) it was 0.1 nM; in test [6] (UACC-812, low seeding density, 72 h, read-out: Low Density gIC50), 0.1 nM. Moreover, the IC50 in test [6] (UACC-812, mean of low and high density, read-out: Mean gIC50) amounted to 0.1 nM. For the same molecule, the “tumor cell lines with gIC50>20 nM” value in test [2] (number of lines / lines tested) is 3/15. For the same molecule, the entries for the “tumor cell lines with gIC50s<3 nM” value in test [2] (number of lines / lines tested) and in test [3] (number of lines / lines tested) were 7/15 and 7/51, respectively. Also, in test [3] (number of lines / lines tested), the “tumor cell lines with gIC50>30 nM” value is 16/51. Also, the “selectivity for the PI3K family of enzymes” value in test [4] was “good selectivity”.
